According to patent US11672775B2, “Treprostinil prodrugs” (United Therapeutics Corporation, priority 2016, dated 2023):

Tests used:
Type in all cases: cell-based
EP2 receptor [1] = target: T1, EP2 receptor (Homo sapiens, UniProt P43116); test: cAMP assay (TR-FRET or HTRF kit, forskolin), Examples 5 and 6; conditions: Table 3 (Example 5); read-out: EC50, EP receptor
T1 construct: expressed in transfected cells
Experimental: (§1) [table] Prodrug XV (for structure see FIG. 10) as well as treprostinil were tested for 3 G-protein-coupled receptors (GPCRs), namely DP1, EP2, and IP, using cyclic adenosine monophosphate (cAMP) assay. Cyclic AMP assay kits: Multiscreen™ TR-FRET cAMP 1.0 No Wash Assay Kit (Multispan, Inc., Cat #MSCM01-25) and HTRF cAMP HiRange Kit (CisBio, Cat #62AM6PEC). Instruments: FlexStation III (Molecular Devices). Cyclic AMP (cAMP) Assay: cAMP assays were performed according to the manufacturer's protocol using Multiscreen™ TR-FRET cAMP 1.0 No Wash Assay Kit or HTRF cAMP HiRange Kit. […] The reaction was terminated by sequentially adding sequentially adding trFluor™ Eu-labeled cAMP and trFluor™ 650-labeled anti-cAMP antibody or D2-labeled cAMP and cryptate-labeled anti-cAMP antibody in lysis buffer. The plate was then incubated at room temperature for 60 minutes before reading fluorescent emissions at 620 nm and 665 or 668 nm with excitation at 314 nm on FlexStation III (Molecular Devices). Cyclic AMP (cAMP) assays: Cyclic AMP assay results are shown as “Ratio 665/620×10,000” (ratio of fluorescence at 665 nm and 620 nm×10,000) or “Ratio 668/620×10,000” (ratio of fluorescence at 668 nm and 620 nm×10,000). Data in graphs were represented in Mean±SD. Dose-dependent responses were fitted with sigmoidal dose-response curves allowing variable slopes using GraphPad Prism versions 4, 5 or 6 (Graphpad Prism). Treprostinil Prodrug XIV (for structure see FIG. 10) as well as treprostinil were tested for 3 G-protein-coupled receptors (GPCRs), namely DP1, EP2, and IP, using cyclin adenosine monophosphate (cAMP) assay. Cyclic AMP assay kits: Multiscreen™ TR-FRET cAMP 1.0 No Wash Assay Kit (Multispan, Inc., Cat #MSCM01-25) and HTRF cAMP HiRange Kit (CisBio, Cat #62AM6PEC). Cyclic AMP (cAMP) Assay: cAMP assays were performed according to the manufacturer's protocol using Multiscreen™ TR-FRET cAMP 1.0 No Wash Assay Kit or HTRF cAMP HiRange Kit. […] The reaction was terminated by sequentially adding sequentially adding trFluor™ Eu-labeled cAMP and trFluor™ 650-labeled anti-cAMP antibody or D2-labeled cAMP and cryptate-labeled anti-cAMP antibody in lysis buffer. The plate was then incubated at room temperature for 60 minutes before reading fluorescent emissions at 620 nm and 665 or 668 nm with excitation at 314 nm on FlexStation III (Molecular Devices). Cyclic AMP (cAMP) assays: Cyclic AMP assay results are shown as “Ratio 665/620×10,000” (ratio of fluorescence at 665 nm and 620 nm×10,000) or “Ratio 668/620×10,000” (ratio of fluorescence at 668 nm and 620 nm×10,000). Data in graphs were represented in Mean±SD. Dose-dependent responses were fitted with sigmoidal dose-response curves allowing variable slopes using GraphPad Prism versions 4, 5 or 6 (Graphpad Prism).

IP1 receptor = target: T2, IP1 receptor (Homo sapiens, UniProt P43119); test: as above; conditions: Table 3 (Example 5); read-out: EC50, IP receptor
T2 construct: expressed in transfected cells
Experimental: as §1

DP1 receptor = target: T3, DP1 receptor (Homo sapiens, UniProt Q13258); test: as above; conditions: Table 3 (Example 5); read-out: EC50, DP receptor
T3 construct: expressed in transfected cells
T3 sequence (Q13258 1-359): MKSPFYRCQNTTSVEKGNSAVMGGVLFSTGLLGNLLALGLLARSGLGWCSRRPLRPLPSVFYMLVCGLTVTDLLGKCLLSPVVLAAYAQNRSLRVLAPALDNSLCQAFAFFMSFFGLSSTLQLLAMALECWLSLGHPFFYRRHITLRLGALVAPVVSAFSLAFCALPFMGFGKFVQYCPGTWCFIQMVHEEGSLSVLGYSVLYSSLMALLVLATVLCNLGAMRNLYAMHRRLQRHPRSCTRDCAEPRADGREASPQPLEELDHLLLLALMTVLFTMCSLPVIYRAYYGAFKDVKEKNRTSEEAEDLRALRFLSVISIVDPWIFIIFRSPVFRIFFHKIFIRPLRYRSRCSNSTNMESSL
Experimental: as §1

EP2 receptor [2] = target: T1, EP2 receptor; test: cAMP assay (HTRF cAMP HiRange Kit), agonist mode, Example 4; conditions: Table 2; HEK293T cells; read-out: Receptor activity EC50, EP receptor
Experimental: Materials. […] Cyclic AMP assay kit: HTRF cAMP HiRange Kit (CisBio, Cat #62AM6PEC). Cyclic AMP (cAMP) Assay: cAMP assays were performed according to the manufacturer's protocol using CisBio's HTRF cAMP HiRange Kit. […] The reaction was terminated by sequentially adding D2-labeled cAMP and cryptate-labeled anti-cAMP antibody in lysis buffer. […] Data in graphs are represented in Mean±SD. Dose-dependent responses were fitted with sigmoidal dose-response curves allowing variable slopes using GraphPad Prism versions 4, 5 or 6 (Graphpad Prism).

T1 sequence (P43116 whole entry): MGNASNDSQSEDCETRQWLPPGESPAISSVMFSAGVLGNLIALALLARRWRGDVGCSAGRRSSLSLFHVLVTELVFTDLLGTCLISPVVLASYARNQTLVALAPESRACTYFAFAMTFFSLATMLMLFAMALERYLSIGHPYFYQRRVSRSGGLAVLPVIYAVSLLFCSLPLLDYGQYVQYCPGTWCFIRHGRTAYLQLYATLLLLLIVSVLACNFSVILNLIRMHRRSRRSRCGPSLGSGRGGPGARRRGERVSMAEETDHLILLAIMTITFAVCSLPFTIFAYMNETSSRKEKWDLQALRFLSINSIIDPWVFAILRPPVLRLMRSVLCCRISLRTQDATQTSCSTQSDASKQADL
T2 sequence (P43119 whole entry): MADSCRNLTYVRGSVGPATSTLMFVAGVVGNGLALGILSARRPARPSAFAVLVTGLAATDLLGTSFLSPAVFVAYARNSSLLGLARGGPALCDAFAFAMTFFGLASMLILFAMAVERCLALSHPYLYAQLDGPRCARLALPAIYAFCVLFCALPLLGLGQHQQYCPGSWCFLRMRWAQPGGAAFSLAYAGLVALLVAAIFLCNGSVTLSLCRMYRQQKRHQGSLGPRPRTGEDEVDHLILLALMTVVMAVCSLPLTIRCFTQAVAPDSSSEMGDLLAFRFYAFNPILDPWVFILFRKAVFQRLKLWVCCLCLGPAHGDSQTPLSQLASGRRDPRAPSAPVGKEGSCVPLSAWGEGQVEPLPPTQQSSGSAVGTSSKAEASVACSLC

In the case of `CCCCC[C@H](O)CC[C@@H]1[C@H]2Cc3cccc(OCC(=O)O)c3C[C@H]2C[C@H]1O` [Treprostinil], the EC50 (EP2 receptor [1]) is reported as 0.537 nM, the EC50 (IP1 receptor) is reported as 0.0779 nM and the EC50 (DP1 receptor) is reported as 0.078 nM. The EC50 (EP2 receptor [2]) was 6.75 nM.
